Broadly, the EC50 is the concentration that produces a half-maximal response.

Here are results for 27 compounds from US11339120B2, “Phenyl derivatives as cannabinoid receptor 2 agonists” (priority 2015, dated 2022).

Like-named read-outs stand apart in the source and are kept apart here. Bounds are passed on as bounds.

The target of one experiment is T1, human CB1 receptors (Homo sapiens, UniProt P21554).
T1 construct: expressed in transfected cells; host or cells: CHO cells
In words: functional cAMP assay, CHO cells expressing human CB1. The format is cell-based. On the procedure: (§1) CHO cells expressing human CB1 or CB2 receptors are seeded 17-24 hours prior to the experiment 50.000 cells per well in a black 96 well plate with flat clear bottom (Corning Costar #3904) in DMEM (Invitrogen No. 31331), 1×HT supplement, with 10% fetal calf serum and incubated at 5% CO2 and 37° C. in a humidified incubator. The growth medium was exchanged with Krebs Ringer Bicarbonate buffer with 1 mM IBMX and incubated at 30° C. for 30 min. Compounds were added to a final assay volume of 100 μl and incubated for 30 min at 30° C. Using the cAMP-Nano-TRF detection kit the assay (Roche Diagnostics) was stopped by the addition of 50 μl lysis reagent (Tris, NaCl, 1.5% Triton X100, 2.5% NP40, 10% NaN3) and 50 μl detection solutions (20 μM mAb Alexa700-cAMP 1:1, and 48 μM Ruthenium-2-AHA-cAMP) and shaken for 2 h at room temperature. The time-resolved energy transfer is measured by a TRF reader (Evotec Technologies GmbH), equipped with a ND:YAG laser as excitation source. The plate is measured twice with the excitation at 355 nm and at the emission with a delay of 100 ns and a gate of 100 ns, total exposure time 10 s at 730 (bandwidth 30 nm) or 645 nm (bandwidth 75 nm), respectively. The FRET signal is calculated as follows: FRET=T730-Alexa730-P(T645-B645) with P=Ru730-B730/Ru645-B645, where T730 is the test well measured at 730 nM, T645 is the test well measured at 645 nm, B730 and B645 are the buffer controls at 730 nm and 645 nm, respectively. cAMP content is determined from the function of a standard curve spanning from 10 μM to 0.13 nM cAMP.
(§2) EC50 values were determined using Activity Base analysis (ID Business Solution, Limited). The EC50 values for a wide range of cannabinoid agonists generated from this assay were in agreement with the values published in the scientific literature.
(In general: Cyclic AMP is a second messenger, typically raised through Gs and lowered through Gi signalling.)

The next experiment addresses T2, human CB2 receptors (Homo sapiens, UniProt P34972).
T2 construct: expressed in transfected cells; host or cells: CHO cells
In words: functional cAMP assay, CHO cells expressing human CB2. The class given is cell-based. On the procedure: as §1, §2

Where [1] appears, read: functional cAMP assay, CHO cells expressing human CB2, read-out: Human CB2 EC50.

T2 sequence (P34972 whole entry): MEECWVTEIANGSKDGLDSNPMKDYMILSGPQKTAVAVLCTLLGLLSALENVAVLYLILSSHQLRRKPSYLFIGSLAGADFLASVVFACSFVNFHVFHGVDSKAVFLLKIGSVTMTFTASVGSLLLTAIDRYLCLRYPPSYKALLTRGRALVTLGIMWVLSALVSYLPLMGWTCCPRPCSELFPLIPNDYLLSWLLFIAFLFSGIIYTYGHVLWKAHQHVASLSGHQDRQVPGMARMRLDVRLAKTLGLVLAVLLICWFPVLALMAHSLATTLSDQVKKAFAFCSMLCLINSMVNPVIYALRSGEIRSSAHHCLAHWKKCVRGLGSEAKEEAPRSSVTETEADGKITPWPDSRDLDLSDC
T1 sequence (P21554 whole entry): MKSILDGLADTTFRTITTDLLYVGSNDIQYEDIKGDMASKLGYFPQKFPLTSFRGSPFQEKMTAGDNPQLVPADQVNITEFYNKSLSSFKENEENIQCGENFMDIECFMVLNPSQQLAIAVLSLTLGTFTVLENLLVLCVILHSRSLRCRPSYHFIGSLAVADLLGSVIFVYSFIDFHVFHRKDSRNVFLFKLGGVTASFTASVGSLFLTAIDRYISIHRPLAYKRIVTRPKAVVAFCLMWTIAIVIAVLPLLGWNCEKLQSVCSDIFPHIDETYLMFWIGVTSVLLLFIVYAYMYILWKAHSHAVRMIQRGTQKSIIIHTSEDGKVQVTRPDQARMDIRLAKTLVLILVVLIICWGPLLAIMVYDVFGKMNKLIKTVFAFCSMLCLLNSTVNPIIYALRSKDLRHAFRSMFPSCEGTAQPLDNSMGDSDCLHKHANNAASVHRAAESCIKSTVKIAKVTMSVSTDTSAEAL

In the case of `CNC(=O)[C@H](CC(C)C)NC(=O)c1ccc(N2CC(F)(F)C2)c(OCC2CC2)c1` [Example 12, N^2-[3-(cyclopropylmethoxy)-4-(3,3-difluoroazetidin-1-yl)benzoyl]-N-methyl-L-leucinamide], the EC50 was more than 10000 nM on human CB1 receptors and 66.4 nM at human CB2 receptors.
The like results for `CC(C)C[C@@H](CO)NC(=O)c1ccc(N2CC(F)(F)C2)c(OCC2CC2)c1` [Example 13, 3-(Cyclopropylmethoxy)-4-(3,3-difluoroazetidin-1-yl)-N-[(2S)-1-hydroxy-4-methylpentan-2-yl]benzamide] were, in that order, more than 10000 nM and 21.8 nM.
For `CC(C)(C)c1noc(-c2ccc(C3CC3)c(OCC3CC3)c2)n1` [Example 14, 3-tert-Butyl-5-[4-cyclopropyl-3-(cyclopropylmethoxy)phenyl]-1,2,4-oxadiazole], in that order: more than 10000 nM and 23.3 nM.
The like results for `NC(=O)CC1(NC(=O)c2ccc(C3CC3)c(OCC3CC3)c2)COC1` [Example 15, N-[3-(2-Amino-2-oxoethyl)oxetan-3-yl]-4-cyclopropyl-3-(cyclopropylmethoxy)benzamide] were, in that order, more than 10000 nM and 34.1 nM.
In the case of `NC(=O)CC1(NC(=O)c2ccc(C3CC3)c(OCC3CC3)c2)CS(=O)(=O)C1` [Example 16, N-[3-(2-Amino-2-oxoethyl)-1,1-dioxothietan-3-yl]-4-cyclopropyl-3-(cyclopropylmethoxy)benzamide], the EC50 is more than 10000 nM at human CB1 receptors and 2.65 nM on human CB2 receptors.
`NC(=O)[C@@H]1CC(F)(F)CN1C(=O)c1ccc(C2CC2)c(OCC2CC2)c1` [Example 17, 1-[4-Cyclopropyl-3-(cyclopropylmethoxy)benzoyl]-4,4-difluoro-L-prolinamide]: the EC50 at human CB1 receptors is more than 10000 nM; on human CB2 receptors, 0.51 nM.
Regarding `CCC(CC)(NC(=O)c1ccc(C2CC2)c(OCC2CC2)c1)C(N)=O` [Example 18, N-(3-Carbamoylpentan-3-yl)-4-cyclopropyl-3-(cyclopropylmethoxy)benzamide], the EC50 is more than 10000 nM at human CB1 receptors and 233 nM at human CB2 receptors (setting [1]).
Turning to `CNC(=O)[C@H](CC(C)C)NC(=O)c1ccc(C2CC2)c(OCC2CC2)c1` [Example 19, N^2-[4-cyclopropyl-3-(cyclopropylmethoxy)benzoyl]-N-methyl-L-leucinamide], the EC50 was more than 10000 nM on human CB1 receptors and 19.6 nM at human CB2 receptors.
With `Cc1nc([C@@](C)(CS(C)(=O)=O)NC(=O)c2ccc(C3CC3)c(OCC3CC3)c2)no1` [Example 20, 4-Cyclopropyl-3-(cyclopropylmethoxy)-N-[(2S)-1-(methanesulfonyl)-2-(5-methyl-1,2,4-oxadiazol-3-yl)propan-2-yl]benzamide], the results for the half-maximal effective concentration (EC50) at human CB1 receptors and on human CB2 receptors were more than 10000 nM and 31.3 nM, respectively.
The like results for `Cc1nc([C@](C)(CS(C)(=O)=O)NC(=O)c2ccc(C3CC3)c(OCC3CC3)c2)no1` [Example 21, 4-Cyclopropyl-3-(cyclopropylmethoxy)-N-[(2R)-1-(methanesulfonyl)-2-(5-methyl-1,2,4-oxadiazol-3-yl)propan-2-yl]benzamide] were, in that order, more than 10000 nM and 297 nM.
Take `NC(=O)C1CC2(CC2)CN1C(=O)c1ccc(C2CC2)c(OCC2CC2)c1` (stereo not drawn) [Example 22, 5-[4-Cyclopropyl-3-(cyclopropylmethoxy)benzoyl]-5-azaspiro[2.4]heptane-6-carboxamide]: the EC50 was more than 10000 nM on human CB1 receptors and 28.1 nM on human CB2 receptors.
As for `CC(C)(C)c1nc(-c2ccc(C3CC3)c(OCC(F)(F)F)c2)no1` [Example 23, 5-tert-Butyl-3-[4-cyclopropyl-3-(2,2,2-trifluoroethoxy)phenyl]-1,2,4-oxadiazole], the EC50 on human CB1 receptors was more than 10000 nM; at human CB2 receptors, 25.9 nM.
`CC(C)(C)c1nc(-c2ccc(C3CC3)c(OCC(F)F)c2)no1` [Example 24, 5-tert-Butyl-3-[4-cyclopropyl-3-(2,2-difluoroethoxy)phenyl]-1,2,4-oxadiazole]: the results for the EC50 on human CB1 receptors and on human CB2 receptors were more than 10000 nM and 15.5 nM, respectively.
As for `Cc1nc([C@@](C)(CC2CC2)NC(=O)c2ccc(C3CC3)c(OCC(F)(F)F)c2)no1` [Example 25, (−)-4-Cyclopropyl-N-[1-cyclopropyl-2-(5-methyl-1,2,4-oxadiazol-3-yl)propan-2-yl]-3-(2,2,2-trifluoroethoxy)benzamide], the figures for the EC50 on human CB1 receptors and on human CB2 receptors were more than 10000 nM and 40.3 nM, respectively.
For `Cc1nc([C@](C)(CC2CC2)NC(=O)c2ccc(C3CC3)c(OCC(F)(F)F)c2)no1` [Example 26, (+)-4-Cyclopropyl-N-[1-cyclopropyl-2-(5-methyl-1,2,4-oxadiazol-3-yl)propan-2-yl]-3-(2,2,2-trifluoroethoxy)benzamide], in that order: more than 10000 nM and 36.3 nM.
For the compound `NC(=O)CC1(NC(=O)c2ccc(C3CC3)c(OCC(F)(F)F)c2)CS(=O)(=O)C1` [Example 27, N-[3-(2-Amino-2-oxoethyl)-1,1-dioxothietan-3-yl]-4-cyclopropyl-3-(2,2,2-trifluoroethoxy)benzamide], the EC50 on human CB1 receptors was more than 10000 nM; on human CB2 receptors, 98 nM.
Consider `Cc1nc([C@](C)(CS(C)(=O)=O)NC(=O)c2ccc(C3CC3)c(OCC(F)(F)F)c2)no1` [Example 28, 4-Cyclopropyl-N-[(2R)-1-(methanesulfonyl)-2-(5-methyl-1,2,4-oxadiazol-3-yl)propan-2-yl]-3-(2,2,2-trifluoroethoxy)benzamide], for which the results for the EC50 at human CB1 receptors and at human CB2 receptors were more than 10000 nM and 79.9 nM, respectively.
For `Cc1nc([C@@](C)(CS(C)(=O)=O)NC(=O)c2ccc(C3CC3)c(OCC(F)(F)F)c2)no1` [Example 29, 4-Cyclopropyl-N-[(2S)-1-(methanesulfonyl)-2-(5-methyl-1,2,4-oxadiazol-3-yl)propan-2-yl]-3-(2,2,2-trifluoroethoxy)benzamide], in that order: more than 10000 nM and 149 nM.
For the compound `CC(C)(C)c1nc(-c2ccc(C3CC3)c(OCCF)c2)no1` [Example 30, 5-tert-Butyl-3-[4-cyclopropyl-3-(2-fluoroethoxy)phenyl]-1,2,4-oxadiazole], the EC50 was more than 10000 nM on human CB1 receptors and 38.3 nM on human CB2 receptors.
With `Cc1nc([C@@](C)(CC2CC2)NC(=O)c2ccc(C3CC3)c(OCC(F)F)c2)no1` [Example 31, (−)-4-Cyclopropyl-N-[1-cyclopropyl-2-(5-methyl-1,2,4-oxadiazol-3-yl)propan-2-yl]-3-(2,2-difluoroethoxy)benzamide], the EC50 at human CB1 receptors was more than 10000 nM; on human CB2 receptors it was 16.6 nM.
On to `Cc1nc([C@](C)(CC2CC2)NC(=O)c2ccc(C3CC3)c(OCC(F)F)c2)no1` [Example 32, (+)-4-Cyclopropyl-N-[1-cyclopropyl-2-(5-methyl-1,2,4-oxadiazol-3-yl)propan-2-yl]-3-(2,2-difluoroethoxy)benzamide], for which the EC50 on human CB1 receptors was more than 10000 nM; on human CB2 receptors, 10.1 nM.
For `Cc1nc([C@@](C)(CC2CC2)NC(=O)c2ccc(C3CC3)c(OCCF)c2)no1` [Example 33], in that order: more than 10000 nM and 59.4 nM.
The like results for `Cc1nc([C@](C)(CC2CC2)NC(=O)c2ccc(C3CC3)c(OCCF)c2)no1` [Example 34, (+)-4-Cyclopropyl-N-[1-cyclopropyl-2-(5-methyl-1,2,4-oxadiazol-3-yl)propan-2-yl]-3-(2-fluoroethoxy)benzamide] were, in that order, more than 10000 nM and 57 nM.
For the compound `C[C@](CC(N)=O)(NC(=O)c1ccc(C2CC2)c(OCC(F)(F)F)c1)C1CC1` [Example 36, (+)-N-[4-amino-2-cyclopropyl-4-oxobutan-2-yl]-4-cyclopropyl-3-(2,2,2-trifluoroethoxy)benzamide], the EC50 on human CB1 receptors is more than 10000 nM; on human CB2 receptors, 33.9 nM.
The like results for `CNC(=O)[C@@H](NC(=O)c1ccc(C2CC2)c(OC(C)C)c1)C(C)(C)C` [Example 37, 4-Cyclopropyl-N-[(2S)-3,3-dimethyl-1-(methylamino)-1-oxobutan-2-yl]-3-[(propan-2-yl)oxy]benzamide] were, in that order, more than 10000 nM and 5.33 nM.
On to `CNC(=O)[C@@H](NC(=O)c1ccc(C2CC2)c(OCCF)c1)C(C)(C)C` [Example 39, 4-Cyclopropyl-N-[(2S)-3,3-dimethyl-1-(methylamino)-1-oxobutan-2-yl]-3-(2-fluoroethoxy)benzamide], for which the EC50 on human CB1 receptors was 1560 nM; on human CB2 receptors, 11.5 nM.
For the compound `NC(=O)[C@@H]1CC(F)(F)CN1C(=O)c1ccc(C2CC2)c(OCCF)c1` [Example 40, 1-[4-Cyclopropyl-3-(2-fluoroethoxy)benzoyl]-4,4-difluoro-L-prolinamide], the EC50 is more than 10000 nM on human CB1 receptors and 216 nM on human CB2 receptors (setting [1]).
